Starred links: 1 amine or outer side, 2 acyl side, 3 side chain; linkers in the order of their positions; H or OH if unused. Non-standard residues stand in square brackets, D forms with d. Groups on a side chain read outwards from the residue. *: point of attachment. C18 diacid = O=C(O)CCCCCCCCCCCCCCCCC(=O)*; γGlu = O=C(O)[C@H](CCC(=O)[*:2])N[*:1]; αMe4Pal = C[C@](N)(Cc1ccncc1)C(=O)O; 4Pal = N[C@@H](Cc1ccncc1)C(=O)O; αMeL = CC(C)C[C@](C)(N)C(=O)O; Orn = NCCC[C@H](N)C(=O)O; Dab = NCC[C@H](N)C(=O)O; AEEA = NCCOCCOCC(=O)O; Aib = CC(C)(N)C(=O)O
Tests used:
hGIPR [1] = molecular target: T1, hGIPR (Homo sapiens, UniProt P48546); test: Functional cAMP activity in the presence of 1% HSA; format: cell-based; details: read-out: cAMP Rel EC50, hGIPR
T1 sequence (P48546 22-466): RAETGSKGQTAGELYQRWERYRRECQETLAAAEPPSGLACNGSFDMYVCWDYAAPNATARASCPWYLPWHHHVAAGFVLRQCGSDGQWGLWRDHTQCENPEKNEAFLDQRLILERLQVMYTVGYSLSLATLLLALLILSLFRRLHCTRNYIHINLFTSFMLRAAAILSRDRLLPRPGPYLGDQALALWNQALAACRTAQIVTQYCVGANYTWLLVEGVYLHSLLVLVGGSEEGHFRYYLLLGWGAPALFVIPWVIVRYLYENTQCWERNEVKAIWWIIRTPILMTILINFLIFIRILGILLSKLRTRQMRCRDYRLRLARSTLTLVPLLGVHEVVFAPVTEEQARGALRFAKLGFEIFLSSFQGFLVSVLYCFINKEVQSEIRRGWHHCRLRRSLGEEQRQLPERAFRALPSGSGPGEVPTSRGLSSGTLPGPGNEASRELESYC

hGLP-1R [2] = molecular target: T2, hGLP-1R (Homo sapiens, UniProt P43220); test: Functional cAMP activity in the presence of 1% HSA; format: cell-based; details: read-out: cAMP Rel EC50, hGLP-1R
human GcgR = human GcgR (Homo sapiens, UniProt P47871); test: Functional cAMP activity in the presence of 1% HSA; format: cell-based; details: read-out: cAMP Rel EC50, hGcgR
hGIPR [3] = molecular target: T1, hGIPR; test: Functional cAMP activation in the presence of 0.1% casein (no HSA); format: cell-based; details: in the presence of 0.1% casein (no HSA); geometric mean; read-out: Relative cAMP EC50, hGIPR;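 on Relative cAMP EC50, hGIPR: intracellular cAMP rise after 30 min at 37 °C read by HTRF against a standard curve, scaled between buffer alone (0%) and top control ligand concentration (100%), four-parameter fit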;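 on Relative cAMP EC50, hGLP-1R: intracellular cAMP rise after 30 min at 37 °C read by HTRF, normalized between buffer only (0%) and maximal control ligand (100%), four-parameter variable-slope fit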;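 on Relative cAMP EC50, hGcgR: intracellular cAMP rise after 30 min at 37 °C, read by HTRF against a cAMP standard curve, scaled from buffer only (0%) to maximal control ligand response (100%)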
hGLP-1R [4] = molecular target: T2, hGLP-1R; test: as above; format: cell-based; details: in the presence of 0.1% casein (no HSA); geometric mean; read-out: Relative cAMP EC50, hGLP-1R
hGcgR = hGcgR (Homo sapiens, UniProt P47871); test: as above; format: cell-based; details: in the presence of 0.1% casein (no HSA); geometric mean; read-out: Relative cAMP EC50, hGcgR;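 further: intracellular cAMP rise after 30 min at 37 °C, read by HTRF against a cAMP standard curve, scaled from buffer only (0%) to maximal control ligand response (100%)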
human GLP1-R = human GLP1-R (Homo sapiens, UniProt P43220); test: GLP1-R internalization assay in HEK293 cells; format: cell-based; details: for EC50: HEK293 cells expressing SNAP-GLP-1R, read-out: GLP1R Internalization EC50; for Internalization % TOP: normalized to maximum concentration of GLP-1 (100%)
[5] = test system: Intestinal organoid from Göttingen minipig jejunum tissue, 2D monolayer; test: Cell based in vitro permeability (Papp) assay; format: in vitro ADME
Procedure, shortened: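 Papp calculated from LC/MS peptide levels in apical and basal compartments. Basal sampling at 20 min with C10 present, across monolayers grown from dissociated minipig jejunal organoids in transwells.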

human GcgR, sequence (P47871 26-477): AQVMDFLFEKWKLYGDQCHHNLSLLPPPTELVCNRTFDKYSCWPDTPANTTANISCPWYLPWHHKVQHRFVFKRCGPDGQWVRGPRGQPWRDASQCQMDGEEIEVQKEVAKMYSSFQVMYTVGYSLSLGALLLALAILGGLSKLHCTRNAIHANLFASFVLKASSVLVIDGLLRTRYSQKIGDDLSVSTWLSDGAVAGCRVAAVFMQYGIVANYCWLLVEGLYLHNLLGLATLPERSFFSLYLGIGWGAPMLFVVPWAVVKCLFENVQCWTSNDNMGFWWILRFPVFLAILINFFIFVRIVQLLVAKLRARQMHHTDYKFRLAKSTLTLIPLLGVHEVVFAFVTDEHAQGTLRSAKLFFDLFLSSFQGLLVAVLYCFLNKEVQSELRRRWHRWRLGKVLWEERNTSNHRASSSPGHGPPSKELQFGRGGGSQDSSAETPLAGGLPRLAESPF
hGcgR, sequence (P47871 26-477): as above
T2 sequence (P43220 24-463): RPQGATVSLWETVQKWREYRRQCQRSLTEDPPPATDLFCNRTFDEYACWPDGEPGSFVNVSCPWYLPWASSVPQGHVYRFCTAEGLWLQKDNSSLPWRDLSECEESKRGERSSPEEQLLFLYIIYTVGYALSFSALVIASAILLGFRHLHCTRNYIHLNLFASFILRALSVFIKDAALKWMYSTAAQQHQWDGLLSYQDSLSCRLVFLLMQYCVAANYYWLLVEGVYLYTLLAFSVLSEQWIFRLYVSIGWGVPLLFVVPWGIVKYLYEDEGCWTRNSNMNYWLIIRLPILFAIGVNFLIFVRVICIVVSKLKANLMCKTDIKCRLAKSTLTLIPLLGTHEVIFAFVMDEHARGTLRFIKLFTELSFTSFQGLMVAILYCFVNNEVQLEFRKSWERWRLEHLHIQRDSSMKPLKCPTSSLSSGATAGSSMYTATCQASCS
human GLP1-R, sequence (P43220 24-463): as above

| Substance | EC50 (hGIPR [1]) | EC50 (hGLP-1R [2]) | EC50 (human GcgR) | EC50 (hGIPR [3]) | EC50 (hGLP-1R [4]) | EC50 (hGcgR) | EC50 (human GLP1-R) | Internalization % TOP (human GLP1-R) | Relative Papp (Compared to internal standard) [5] |
| --- | --- | --- | --- | --- | --- | --- | --- | --- | --- |
| H-Y[Aib]QGTFTSDFS[Orn][αMeL]LDKK([γGlu-AEEA-γGlu-C18 diacid])AQ[Aib]AFIEYLLE[Aib]GPSSGAPPPSGS-NH2 [Example 193] | 12.7 nM | 473 nM | 1120 nM | 0.0609 nM | 5.19 nM | 4.51 nM | 132 nM | 50.7% | 0.17 |
| H-Y[Aib]QGTFTSDYSR[αMeL]LDKK([AEEA-γGlu-C18 diacid])AQ[Aib]AFIEYLLEGGESSGAPPPSGS-NH2 [Example 361] | 46.3 nM | 376 nM | 987 nM | 0.214 nM | 2.08 nM | 2.73 nM | 50.4 nM | 73% | 0.10 |
| H-Y[Aib]QGTFTSD[4Pal]SQ[αMeL]LDKK([AEEA-γGlu-C18 diacid])AQ[αMe4Pal]AFIEYLIE[Aib]GESSGAPPPSGE-NH2 [Example 227] | 39.7 nM | 418 nM | 937 nM | 0.17 nM | 2.34 nM | 4.22 nM | 114 nM | 59.4% | 0.42 |
| H-Y[Aib]QGTFTSD[4Pal]SQ[αMeL]LDKK([AEEA-γGlu-C18 diacid])AQ[αMe4Pal]AFIEYLIE[Aib]GESSGAPPPSGS-NH2 [Example 226] | 32.2 nM | 354 nM | 763 nM | 0.127 nM | 1.97 nM | 3.08 nM | 29.1 nM | 59.3% | 0.36 |
| H-Y[Aib]QGTFTSD[4Pal]SR[αMeL]LDKK([AEEA-γGlu-C18 diacid])AQ[Aib]AFIEYLIE[Aib]GESSGAPPPSGS-NH2 [Example 187] | 15.6 nM | 178 nM | 2970 nM | 0.111 nM | 1.11 nM | 14.8 nM | 17.2 nM | 57% | 0.48 |
| H-Y[Aib]QGTFTSD[4Pal]SR[αMeL]LDKK([AEEA-γGlu-C18 diacid])AQ[αMe4Pal]AFIEYLIE[Aib]GESSGAPPPSGE-NH2 [Example 225] | 40.2 nM | 438 nM | 561 nM | 0.213 nM | 2.44 nM | 2.36 nM | 26 nM | 56.7% | 0.48 |
| H-Y[Aib]QGTFTSD[4Pal]SR[αMeL]LDKK([AEEA-γGlu-C18 diacid])AQ[αMe4Pal]AFIEYLIE[Aib]GESSGAPPPSGS-NH2 [Example 224] | 21.5 nM | 333 nM | 452 nM | 0.114 nM | 1.89 nM | 1.91 nM | 32.2 nM | 61.9% | 0.35 |
| H-Y[Aib]QGTFTSD[4Pal]S[Dab][αMeL]LDKK([AEEA-γGlu-C18 diacid])AQ[Aib]AFIEYLIE[Aib]GESSGAPPPSGS-NH2 [Example 188] | 43.8 nM | 436 nM | 2920 nM | 0.193 nM | 3.43 nM | 10.8 nM | 44.7 nM | 40.2% | 0.46 |
| H-Y[Aib]QGTFTSD[4Pal]S[Orn][αMeL]LDKK([AEEA-γGlu-C18 diacid])AQ[Aib]AFIEYLLAGGPSSGEPPPSGS-NH2 [Example 154] | 29.7 nM | 569 nM | 1040 nM | 0.227 nM | 4.94 nM | 8.72 nM | 47.7 nM | 65.9% | 0.12 |

Source: patent publication US20240270821A1, “GIP/GLP1/GCG TRI-RECEPTOR AGONISTS AND USES THEREOF” (priority 2023, published 2024)
